According to the supplement of paper PMC11208160:

Test: recombinant barcode read abundance after kanamycin selection (control-corrected) (log10(CPM+1)); higher = more efficient recombination; sequences stand for … in AGTGCAGAGAAAATCGGCCAGTTTTCTCTGCCTGCAGTCCGCATGCCGT…ATTTATGCAGCGGACTGCCTTTCTCCCAAAGTGATAAACCGGACAGTATCATGGACCGGTTTTCCCGGTAATCCGTATTTGCAAGGTTGGTTTCACT; site = the 11-nt target
Method in brief: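 Targets were screened in pooled form in E. coli against IS621 bridge RNA target-binding loops. Recombination efficiency is based on barcode counts at recombinant junctions in counts per million, averaged and corrected for the control. Numbers are shown as log10(CPM+1), with duplicate plates on chloramphenicol/ampicillin LB agar (control) or chloramphenicol/ampicillin/kanamycin with 0.1 mM IPTG.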

“AGTCTTAGCTGGGTTCTAACCTGTTGCCAGC [AGTCTTACTTG_LTGcore_GC_RTGcore_GC] (site AGTCTTACTTG) (LTG core: GC, RTG core: GC)” and “AGTCTTAGGTGGGTTCTAACCTGTTGCCACC [AGTCTTACTTG_LTGcore_GG_RTGcore_GG] (site AGTCTTACTTG) (LTG core: GG, RTG core: GG)” are within 0.2 log units of each other in “recombinant barcode read abundance (log10)” value: 0.197 for the first, 0.274 for the second.

“AGTCTTATATGGGTTCTAACCTGTTGCCATA [AGTCTTACTTG_LTGcore_TA_RTGcore_TA] (site AGTCTTACTTG) (LTG core: TA, RTG core: TA)” and “AGTCTTATTTGGGTTCTAACCTGTTGCCAAG [AGTCTTACTTG_LTGcore_TT_RTGcore_CT] (site AGTCTTACTTG) (LTG core: TT, RTG core: CT)” are within 0.2 log units of each other in “recombinant barcode read abundance (log10)” value: 0.153 for the first, 0.137 for the second.

“ATGCTTTAGTGGGTTCTAACCTGTTGCCTAG [ATGCTTTCTAG_LTGcore_AG_RTGcore_CT] (site ATGCTTTCTAG) (LTG core: AG, RTG core: CT)” and “ATGCTTTCCTGGGTTCTAACCTGTTGCCTAG [ATGCTTTCTAG_LTGcore_CC_RTGcore_CT] (site ATGCTTTCTAG) (LTG core: CC, RTG core: CT)” are within 0.2 log units of each other in “recombinant barcode read abundance (log10)” value: 0.0782 for the first, 0.0734 for the second.

“ATGCTTTCCTGGGTTCTAACCTGTTGCCTGG [ATGCTTTCTAG_LTGcore_CC_RTGcore_CC] (site ATGCTTTCTAG) (LTG core: CC, RTG core: CC)” and “ATGCTTTCGTGGGTTCTAACCTGTTGCCTAG [ATGCTTTCTAG_LTGcore_CG_RTGcore_CT] (site ATGCTTTCTAG) (LTG core: CG, RTG core: CT)” are within 0.2 log units of each other in “recombinant barcode read abundance (log10)” value: 0.0978 for the first, 0.0216 for the second.

“ATGCTTTCTTGGGTTCTAACCTGTTGCCTAC [ATGCTTTCTAG_LTGcore_CT_RTGcore_GT] (site ATGCTTTCTAG) (LTG core: CT, RTG core: GT)” and “ATGCTTTCTTGGGTTCTAACCTGTTGCCTTG [ATGCTTTCTAG_LTGcore_CT_RTGcore_CA] (site ATGCTTTCTAG) (LTG core: CT, RTG core: CA)” are within 0.2 log units of each other in “recombinant barcode read abundance (log10)” value: 0.191 for the first, 0.0598 for the second.

“ATGCTTTGATGGGTTCTAACCTGTTGCCTAG [ATGCTTTCTAG_LTGcore_GA_RTGcore_CT] (site ATGCTTTCTAG) (LTG core: GA, RTG core: CT)” and “ATGCTTTGATGGGTTCTAACCTGTTGCCTTC [ATGCTTTCTAG_LTGcore_GA_RTGcore_GA] (site ATGCTTTCTAG) (LTG core: GA, RTG core: GA)” are within 0.2 log units of each other in “recombinant barcode read abundance (log10)” value: 0.229 for the first, 0.0368 for the second.

“ATGCTTTGCTGGGTTCTAACCTGTTGCCTGC [ATGCTTTCTAG_LTGcore_GC_RTGcore_GC] (site ATGCTTTCTAG) (LTG core: GC, RTG core: GC)” and “ATGCTTTTATGGGTTCTAACCTGTTGCCTAG [ATGCTTTCTAG_LTGcore_TA_RTGcore_CT] (site ATGCTTTCTAG) (LTG core: TA, RTG core: CT)” are within 0.2 log units of each other in “recombinant barcode read abundance (log10)” value: 0.0848 for the first, 0.238 for the second.

Compared with “ATGCTTTTATGGGTTCTAACCTGTTGCCTTA [ATGCTTTCTAG_LTGcore_TA_RTGcore_TA] (site ATGCTTTCTAG) (LTG core: TA, RTG core: TA)”, “ATGCTTTTGTGGGTTCTAACCTGTTGCCTAG [ATGCTTTCTAG_LTGcore_TG_RTGcore_CT] (site ATGCTTTCTAG) (LTG core: TG, RTG core: CT)” is lower in “recombinant barcode read abundance (log10)” value: 0.232 for the first, 0.0287 for the second.

“ATGCTTTTTTGGGTTCTAACCTGTTGCCTAA [ATGCTTTCTAG_LTGcore_TT_RTGcore_TT] (site ATGCTTTCTAG) (LTG core: TT, RTG core: TT)” and “ATGTCCCAGTGGGTTCTAACCTGTTGCTCCT [ATGTCCCCTGA_LTGcore_AG_RTGcore_AG] (site ATGTCCCCTGA) (LTG core: AG, RTG core: AG)” are within 0.2 log units of each other in “recombinant barcode read abundance (log10)” value: 0.0151 for the first, 0.0318 for the second.

“ATGTCCCCGTGGGTTCTAACCTGTTGCTCCG [ATGTCCCCTGA_LTGcore_CG_RTGcore_CG] (site ATGTCCCCTGA) (LTG core: CG, RTG core: CG)” and “ATGTCCCCTTGGGTTCTAACCTGTTGCTCAC [ATGTCCCCTGA_LTGcore_CT_RTGcore_GT] (site ATGTCCCCTGA) (LTG core: CT, RTG core: GT)” are within 0.2 log units of each other in “recombinant barcode read abundance (log10)” value: 0.163 for the first, 0.0456 for the second.

“ATGTCCCCTTGGGTTCTAACCTGTTGCTCCA [ATGTCCCCTGA_LTGcore_CT_RTGcore_TG] (site ATGTCCCCTGA) (LTG core: CT, RTG core: TG)” and “ATGTCCCCTTGGGTTCTAACCTGTTGCTCCT [ATGTCCCCTGA_LTGcore_CT_RTGcore_AG] (site ATGTCCCCTGA) (LTG core: CT, RTG core: AG)” are within 0.2 log units of each other in “recombinant barcode read abundance (log10)” value: 0.0151 for the first, 0.205 for the second.

“ATGTCCCCTTGGGTTCTAACCTGTTGCTCTG [ATGTCCCCTGA_LTGcore_CT_RTGcore_CA] (site ATGTCCCCTGA) (LTG core: CT, RTG core: CA)” and “ATGTCCCGCTGGGTTCTAACCTGTTGCTCAG [ATGTCCCCTGA_LTGcore_GC_RTGcore_CT] (site ATGTCCCCTGA) (LTG core: GC, RTG core: CT)” are within 0.2 log units of each other in “recombinant barcode read abundance (log10)” value: 0.00868 for the first, 0 for the second.

Going from “ATGTCCCGGTGGGTTCTAACCTGTTGCTCCC [ATGTCCCCTGA_LTGcore_GG_RTGcore_GG] (site ATGTCCCCTGA) (LTG core: GG, RTG core: GG)” to “CATATTAAATGGGTTCTAACCTGTTGCCTTT [CATATTACTAG_LTGcore_AA_RTGcore_AA] (site CATATTACTAG) (LTG core: AA, RTG core: AA)”, the “recombinant barcode read abundance (log10)” value rises from 0.109 to 1.4.

“CATATTAACTGGGTTCTAACCTGTTGCCTGT [CATATTACTAG_LTGcore_AC_RTGcore_AC] (site CATATTACTAG) (LTG core: AC, RTG core: AC)” and “CATATTAAGTGGGTTCTAACCTGTTGCCTAG [CATATTACTAG_LTGcore_AG_RTGcore_CT] (site CATATTACTAG) (LTG core: AG, RTG core: CT)” are within 0.2 log units of each other in “recombinant barcode read abundance (log10)” value: 0.119 for the first, 0.0215 for the second.

First: CATATTAATTGGGTTCTAACCTGTTGCCTAT [CATATTACTAG_LTGcore_AT_RTGcore_AT] (site CATATTACTAG) (LTG core: AT, RTG core: AT)
Second: CATATTACCTGGGTTCTAACCTGTTGCCTGG [CATATTACTAG_LTGcore_CC_RTGcore_CC] (site CATATTACTAG) (LTG core: CC, RTG core: CC)
The “recombinant barcode read abundance (log10)” value of the first is lower: 0.0885 for the first, 0.638 for the second.

First: CATATTACGTGGGTTCTAACCTGTTGCCTCG [CATATTACTAG_LTGcore_CG_RTGcore_CG] (site CATATTACTAG) (LTG core: CG, RTG core: CG)
Second: CATATTACTTGGGTTCTAACCTGTTGCCTCG [CATATTACTAG_LTGcore_CT_RTGcore_CG] (site CATATTACTAG) (LTG core: CT, RTG core: CG)
The “recombinant barcode read abundance (log10)” value of the first is higher: 0.443 for the first, 0.0475 for the second.

“CATATTACTTGGGTTCTAACCTGTTGCCTGA [CATATTACTAG_LTGcore_CT_RTGcore_TC] (site CATATTACTAG) (LTG core: CT, RTG core: TC)” and “CATATTACTTGGGTTCTAACCTGTTGCCTGG [CATATTACTAG_LTGcore_CT_RTGcore_CC] (site CATATTACTAG) (LTG core: CT, RTG core: CC)” are within 0.2 log units of each other in “recombinant barcode read abundance (log10)” value: 0.138 for the first, 0.0433 for the second.
